Experimental data from US12521419B2, “Use of anti-aging glycopeptides to enhance pancreatic cell health, survival and improve transplant outcome” (Protokinetix Inc., priority 2014, dated 2026).

Columns and labels:
human islets [1] = assay: Intra-islet calcium concentration; assay type: cell-based; settings: Tac−, Tac+AAGP groups
Procedure: Various electrophysiology studies were performed on human islets to elucidate a potential mechanism of action for the AAGP™ by characterizing the CNI-related injury and its avoidance.

human islets [2] = assay: Extracellular ROS in culture media, Acridan Lumigen PS-3 assay; assay type: cell-based; settings: media 24 hr after tacrolimus exposure, ± AAGP
Procedure: Frozen samples from all groups are utilized to determine reactive oxygen species (ROS) in the culture media, using the Acridan Lumigen™ PS-3 assay (Amershan ECL Plus kit, Fisher Scientific Inc. Ottawa, ON, Canada) (18). In this assay Acridan Lumigen™ PS-3 is excited by reactive oxygen and nitrogen species (RNS) in the presence of hydrogen peroxide, producing chemiluminescense at 430 nm. Media samples are flash-frozen with liquid nitrogen and stored until the assay is performed. CMRL culture media alone is used as a control, and results are expressed as fold-change increase compared to the control media.

human islets [3] = assay: Kidney subcapsular minimal mass islet transplant in Rag1 mice (Example 3); assay type: in vivo, immunodeficient mice (Rag1); settings: ~1000 IEQ, islets cultured 24 h with AAGP 3 mg/mL, n=4 & 5
Procedure: Two research-grade human islet preparations are cultured for 24 hours in the following groups: • 1) AAGP™+ supplemented islets cells; and • 2) Control (non-supplemented islets)
Islets are cultured in humidified atmosphere of 95% air and 5% CO2 at 37° C., at a density of 200 IE/mL using standard tissue culture flask. AAGP™ concentration is 3 mg/mL. After 24 h, kidney subcapsular islet transplant is performed on immunodeficient mice (Rag1) with minimal islet mass (˜1000 IEQ) to assess transplant efficacy (n=4 & 5, control and AAGP™ respectively).

[4] = Solubility and stability of AAGP in media; assay type: physicochemical
human islets [5] = assay: Viability by fluorescent membrane integrity assay (syto green/ethidium bromide); assay type: cell-based; settings: AAGP 3 mg/mL, 24 hr culture, vs non-supplemented control
Procedure: After 24 hr of culture, islets are assessed for recovery, viability and function. Recovery rate is calculated as the percentage of surviving islets after 24 hr culture in comparison to the initial count for each condition. Viability is assessed using a fluorescent membrane integrity assay with counter-stains syto green/ethidium bromide (Cedarlane Laboratories, Burlington, ON, and Sigma-Aldrich, ON) (Islet isolation for clinical transplantation. In: Shahidul. M, (ed). The islets of Langerhans. New York: Springer, 2010; Ranuncoli A, et al. Cell transplantation 2000; 9(3):409-414; Ricordi C. et al. Acta diabetologica latina 1990; 27(3):185-195; and Barnett M J et al. Cell transplantation 2004; 13(5):481-488).

human islet cells [6] = assay: Initial characterization of human islets cultured 24 hours (Example 1); assay type: cell-based; settings: AAGP 3 mg/mL
Procedure: Research-grade human islet preparations are cultured for 24 hours in the following groups: • 1) AAGP™ supplemented islets cells; and • 2) Controls (non-supplemented islets cells).
(§1) Islets are cultured in humidified atmosphere of 95% air and 5% CO2 at 37° C., at a density of 200 IE/mL using standard tissue culture flask. The AAGP™ concentration is 3 mg/mL. Several tests are conducted on day 1 post-islet isolation, including: Islet recovery, membrane integrity viability stain (Syto® EB) as well as Glucose-Stimulated Insulin Release.

[7] = test system: syngeneic islet transplant; assay: Syngeneic full mass islet transplant with continuous tacrolimus treatment; assay type: in vivo, mouse; settings: AAGP in culture media 1 hour prior to transplant; tacrolimus 1 mg/kg/day by osmotic pump
Description: FIG. 11 illustrates the post-transplant graft function in immunodefficient mice receiving minimal human islet mass (˜1000 IEQ). Islets were previously treated with AAGP™ and tracrolimus accordingly. […] The dotted line indicates graft recovery nephrectomy on day 60. B. Intraperitoneal glucose tolerance test (IPGTT) to evaluate metabolic response after receiving a glucose bolus. C. Insulin content of removed grafts after 60 days of transplant as an indication of residual islet mass. Data points represent mean±SEM adjusted per gram of tissue, (Tac− n=6, Tac+ n=3 and Tac+AAGP™ n=7), *p<0.05, **p<0.01 and ***p<0.001. D and E. Post-transplant graft function in mice receiving syngeneic full mass (˜500 IEQ) islet transplant. AAGP™ was added to the culture media 1 hour prior to transplant and tacrolimus was administered via a subcutaneous osmotic pump (implanted during the same procedure) at a continuous rate of 1 mg/kg/day. D. Pooled blood glucose profiles of animal over 40 days with clear dysfunction for Tac+ islets during the presence of Tac. Vertical dotted line indicates tacrolimus treatment cessation and marks a gradual recovery of Tac+ grafts. Horizontal continuous line at y=11 indicates the normoglycemia limit. Graft recovery nephrectomy was again performed on day 30. E. Mean time-to-euglycemia after transplant showing Tac+AAGP™ mice reversing diabetes earlier (p<0.001, log-rank, Mantel-cox test). […] These differences were not observed in the Tac+AAGP™ group.
To further support these findings a transplant experiment was performed in a syngeneic diabetic mouse transplant model with continuous treatment with tacrolimus to resemble clinical practice.
To make our experiments more clinically relevant, a new in vivo syngeneic mouse transplant model was performed, with tacrolimus as a continuous treatment by means of a subcutaneous osmotic pump. It was observed that the functional impairment of transplanted islets occurred immediately after starting administration of the CNI and lasted during the entire treatment period (7 days).

human islets [8] = assay: Glucose-stimulated insulin secretion (GSIS) perifusion assay; assay type: cell-based; settings: AAGP 3 mg/mL, 24 hr culture
Procedure: Islet secretory function is assessed by monitoring in vitro insulin secretory profile during continuous glucose stimulation, as described by Cabrera et al Cell transplantation 2008;16(10):1039-1048. This in vitro perifusion assay is a modality of continuous Glucose-Stimulated Insulin Secretion (GSIS) test to stress islets in alternating normoglycemic and hyperglycemic environment to model physiological islet response. Supernatants from the perifusion assay are collected and insulin levels are determined using a commercially available ELISA kit (Insulin ELISA kit. Mercodia Inc. Pittsburgh, PA, USA). Results are expressed as fold-change of insulin secretion compared to the low (2.8 mMol) glucose stimulation baseline, normalized for 100 IEQ.

human islet cells [9] = assay: Protection of human islets from tacrolimus toxicity (Example 2); assay type: cell-based; settings: AAGP 3 mg/mL
Procedure: Research-grade human islet preparations are cultured for 48 hours in the following groups: • 1) No tacrolimus (Tac−) treated beta islet cells; • 2) Tracrolimus (Tac+) treated beta islet cells; and • 3) Tacrolimus (Tac+) treated+AAGP™ supplementation beta islet cells.
After 48 h, tacrolimus ([…]) was added to group 2 and 3.
as §1, with “flask.” for “flask. The”, “D1” for “day 1”, “(Syto” for “(Syto®”, “Glucose-stimulated” for “Glucose-Stimulated”

mouse splenocytes = assay: Allogeneic mixed lymphocyte reaction, T cell proliferation by CFSE staining; assay type: cell-based; settings: vs IgG control, n=4
Description: The assay measures T cell proliferative response by levels of CFSE staining.

In the case of `C[C@H](NC(=O)[C@H](C)NC(=O)[C@@H](N)CCCCNC(=O)C(F)(F)C1(O)O[C@H](CO)[C@H](O)[C@H](O)[C@H]1O)C(=O)O` (stereo partly shown) [AAGP™], the “calcium concentration in islets” value (human islets [1]) is reported as “neither tacrolimus nor AAGP™ affected the calcium concentration”, the “extracellular ROS (fold-increase vs control media)” value (human islets [2]) is reported as “ameliorated” and the “transplant outcome with minimal islet mass” value (human islets [3]) is reported as “inconclusive”. The solubility ([4]; all media) was “highly soluble in all media”, the stability ([4]; compared to natural AFP) was “more stable” and the “cellular viability per membrane integrity assay” value (human islets [5]) was “no differences in cellular viability”. The “toxicity on human islet cells” value (human islet cells [6]) was “no toxicity”, the “islet survival in culture” value (human islet cells [6]; 24 hours) was “seems to enhance islet survival in culture” and the “graft function / period to achieve euglycemia” value [7] was “period to achieve euglycemia was similar to the control group”. The “insulin secretion during the second secretory phase (perifusion curves)” value (human islets [8]; vs control) was “significant increase in insulin secretion”, the “GSIS perifusion area under the curve (insulin release)” value (human islets [8]; control 75.5±0.5) was 149.5±0.5 and the “protection of islets exposed to tacrolimus in vitro” value (human islet cells [9]) was “protects islet exposed to tacrolimus in vitro”. The “T cell proliferation (CD8+ and CD4+)” value (mouse splenocytes) was “no significant decrease in proliferation of T cells”.
